Source: patent US12319655B2, “RAF kinase inhibitors and methods of use thereof” (Deciphera Pharmaceuticals, LLC, priority 2021, dated 2025)

Columns and labels:
[1] = target: A-Raf kinase (SEQ. ID No: 1) (Homo sapiens (Human), UniProt P10398, Y301D/Y302D); test: Biochemical Assay for A-Raf (1); conditions: Table J, biochemical assay (1); read-out: ARAF (1)
In short: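 A-Raf Y301D/Y302D at 5.55 nM phosphorylates 30.1 nM MEK with 1 mM ATP in pH 7.5 Tris buffer, 1% DMSO. Activity was read continuously as NADH oxidation at 340 nm in a pyruvate kinase/lactate dehydrogenase coupled system for 6 h at 30 °C. Rates from 4–5 h were converted to percent inhibition, and IC50 came from a four-parameter fit.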

[2] = target: C-Raf kinase (SEQ. ID NO: 3) (Homo sapiens (Human), UniProt P04049, Y340D/Y341D); test: Biochemical Assay for C-Raf (1); conditions: Table J, biochemical assay (1); read-out: CRAF (1)
Chain of C-Raf kinase (SEQ. ID NO: 3) (P04049 307-648 Y340D/Y341D): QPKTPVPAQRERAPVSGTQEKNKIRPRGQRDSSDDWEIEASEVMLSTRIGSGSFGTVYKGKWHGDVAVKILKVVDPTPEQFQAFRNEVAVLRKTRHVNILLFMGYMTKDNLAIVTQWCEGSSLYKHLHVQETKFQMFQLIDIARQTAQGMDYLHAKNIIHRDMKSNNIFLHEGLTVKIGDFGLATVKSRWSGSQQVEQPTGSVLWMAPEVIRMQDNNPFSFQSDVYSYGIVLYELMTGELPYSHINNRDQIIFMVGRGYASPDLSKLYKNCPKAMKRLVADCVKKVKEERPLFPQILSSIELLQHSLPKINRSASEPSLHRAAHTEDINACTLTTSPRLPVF
In short: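 Coupled pyruvate kinase/LDH assay tracking NADH oxidation at 340 nm, with 0.43 nM C-Raf, 30.1 nM MEK and 1 mM ATP in pH 7.5 Tris buffer (15 mM MgCl2, 1% DMSO final). Read continuously for 6 h at 30 °C, rate taken from the 4–5 h window. IC50 from four-parameter fit of percent inhibition.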

[3] = tested on: Miapaca-2 cells; test: MiaPaca-2 Cell Proliferation Assay (1); format: cell-based; conditions: Homo sapiens, MIA PaCa-2, single agent, read-out: MiaPaca2 (1) IC50
In short: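 Resazurin was added after compound exposure and incubated 5-6 h, then fluorescence read at 540 nm excitation and 600 nm emission to give IC50.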

[4] = target: B-Raf (V600E) (SEQ. ID NO: 4) kinase (Homo sapiens (Human), UniProt P15056, V600E); test: Biochemical Assay for B-Raf (V600E) (1); conditions: Table J, BRAF V600E, biochemical assay (1); read-out: BRAF VE (1)
Chain of B-Raf (V600E) (SEQ. ID NO: 4) kinase (P15056 416-766 V600E): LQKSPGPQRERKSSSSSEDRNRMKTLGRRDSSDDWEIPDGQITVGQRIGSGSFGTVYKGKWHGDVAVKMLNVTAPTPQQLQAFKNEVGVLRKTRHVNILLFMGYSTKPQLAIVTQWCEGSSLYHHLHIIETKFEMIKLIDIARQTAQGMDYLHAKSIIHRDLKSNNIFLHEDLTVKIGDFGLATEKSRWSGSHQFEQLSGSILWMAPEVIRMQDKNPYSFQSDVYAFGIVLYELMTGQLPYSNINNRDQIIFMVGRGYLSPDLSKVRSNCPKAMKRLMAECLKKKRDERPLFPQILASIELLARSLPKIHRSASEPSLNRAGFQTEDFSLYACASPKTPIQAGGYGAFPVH
In short: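 Coupled pyruvate kinase/lactate dehydrogenase assay: 0.03 nM B-Raf V600E, 30.1 nM MEK, 1 mM ATP, pH 7.5 Tris/MgCl2 buffer, 1% DMSO. NADH oxidation followed at 340 nm for 6 h at 30 °C; rate from 3–4 h converted to percent inhibition, IC50 by four-parameter fit.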

Chain of A-Raf kinase (SEQ. ID No: 1) (P10398 other isoform, or with tags, fused parts or gaps Y301D (already in the parent)/Y302D (already in the parent)): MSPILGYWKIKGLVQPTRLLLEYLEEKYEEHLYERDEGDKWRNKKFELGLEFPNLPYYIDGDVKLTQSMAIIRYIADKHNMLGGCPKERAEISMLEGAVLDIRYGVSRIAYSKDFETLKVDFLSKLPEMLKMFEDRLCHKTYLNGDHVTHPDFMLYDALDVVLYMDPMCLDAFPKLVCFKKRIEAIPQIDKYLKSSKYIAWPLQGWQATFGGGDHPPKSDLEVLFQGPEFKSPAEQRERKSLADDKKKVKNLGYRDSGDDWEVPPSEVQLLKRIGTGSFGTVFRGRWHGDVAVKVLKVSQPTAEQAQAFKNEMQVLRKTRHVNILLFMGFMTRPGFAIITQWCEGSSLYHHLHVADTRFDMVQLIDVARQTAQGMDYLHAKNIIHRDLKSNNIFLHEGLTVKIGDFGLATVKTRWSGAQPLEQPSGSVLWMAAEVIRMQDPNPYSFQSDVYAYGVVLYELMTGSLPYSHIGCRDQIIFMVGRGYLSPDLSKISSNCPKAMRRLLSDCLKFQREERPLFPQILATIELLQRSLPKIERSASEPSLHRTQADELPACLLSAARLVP

SMILES	IC50 [1]	IC50 [2]	IC50 [3]	IC50 [4]
CNC(=O)c1cc(-c2cncc(-c3cc(NC(=O)c4ccnc(C(C)(C)F)c4)ccc3C)c2)ncn1 [Example 379]	1000 to 10000 nM	≤ 100 nM	1000 to 10000 nM	≤ 100 nM
COC(=O)Nc1cc(-c2cncc(-c3cc(NC(=O)c4ccnc(C(C)(C)F)c4)c(F)cc3C)c2)ccn1 [Example 384]	1000 to 10000 nM	≤ 100 nM	1000 to 10000 nM	≤ 100 nM
COC(=O)Nc1cc(-c2nccc(-c3cc(NC(=O)c4ccnc(C(C)(C)F)c4)ccc3C)n2)ccn1 [Example 391]	1000 to 10000 nM	≤ 100 nM	1000 to 10000 nM	≤ 100 nM
CNC(=O)c1cc(-c2cncc(-c3cc(NC(=O)c4ccnc(C5(C#N)CC5)c4)ccc3C)c2)ncn1 [Example 393]	1000 to 10000 nM	≤ 100 nM	1000 to 10000 nM	≤ 100 nM
Cc1ccc(NC(=O)c2ccnc(C(C)(C)F)c2)cc1-c1cncc(-c2cc(NC(=O)C3CC3)ncn2)c1 [Example 394]	100 to 500 nM	≤ 100 nM	100 to 500 nM	≤ 100 nM
Cc1ccc(NC(=O)c2ccnc(C3(C#N)CC3)c2)cc1-c1cncc(-c2cc(NC(=O)C3CC3)ncn2)c1 [Example 395]	500 to 1000 nM	≤ 100 nM	100 to 500 nM	≤ 100 nM
Cc1ccc(NC(=O)c2ccnc(C3CC3)c2)cc1-c1cncc(-c2cc(NC(=O)C3CC3)ncn2)c1 [Example 396]	100 to 500 nM	≤ 100 nM	1000 to 10000 nM	≤ 100 nM
Cc1ccc(NC(=O)c2ccnc(C(F)(F)F)c2)cc1-c1cncc(-c2cc(NC(=O)C3CC3)ncn2)c1 [Example 397]	1000 to 10000 nM	≤ 100 nM	100 to 500 nM	≤ 100 nM
Cc1cc(F)c(NC(=O)c2ccnc(C3CC3)c2)cc1-c1cncc(-c2cc(NC(=O)C3CC3)ncn2)c1 [Example 398]	1000 to 10000 nM	≤ 100 nM	500 to 1000 nM	≤ 100 nM
COC(=O)Nc1cc(-c2cc(-c3cc(NC(=O)c4ccnc(C(C)(C)F)c4)ccc3C)cc(OCCO)n2)ccn1 [Example 401]	1000 to 10000 nM	≤ 100 nM	1000 to 10000 nM	≤ 100 nM
